The text below walks through data of paper PMC7558535, “In Vitro Metabolism of DWP16001, a Novel Sodium-Glucose Cotransporter 2 Inhibitor, in Human and Animal Hepatocytes” (Pharmaceutics, 2020).

Holding throughout (type): in vitro ADME
For one data set, the target named is T1, CYP2C19 (Homo sapiens, UniProt P33261).
T1 construct: purchased Corning Life Sciences
The experiment in a line: CYP screening, recombinant CYP2C19. The procedure: DWP16001, M1, or M2 was incubated with 11 human cDNA-expressed CYP enzymes (1A1, 1A2, 2A6, 2B6, 2C8, 2C9, 2C19, 2D6, 2E1, 3A4, and 3A5) to identify the CYP enzymes involved in the metabolism of DWP16001. Reaction mixtures of 95 µL containing DWP16001 (final concentration: 5 µM), M1 or M2 (final concentration: 10 µM), and CYPs (final amount: 10 pmol) were prepared in 0.1 M potassium phosphate buffer (pH 7.4). The reaction was started by adding 5 µL of NADPH-generating system; the mixtures were incubated for 30 min at 37 °C in triplicate. Reactions were stopped by the addition of 400 µL of ice-cold ketoconazole (internal standard, 200 ng/mL) in ice-cold acetonitrile. Samples were centrifuged at 15,000× g for 8 min at 4 °C. Seventy-five microliter aliquots of the supernatants were diluted with 75 µL of deionized water and analyzed using an LC–MS/MS system.

In data set [1] the target is T2, CYP3A4 (Homo sapiens, UniProt P08684).
T2 construct: purchased Corning Life Sciences
The experiment in a line: Enzyme kinetics of metabolite formation in cDNA-expressed CYP3A4 supersomes. The procedure: To calculate the enzyme kinetic parameters for the M1 and M2 formation from DWP16001, DWP16001 (final concentrations, 1–200 μM) was incubated with NADPH-generating system, pooled human liver microsomes (0.25 mg/mL), or human cDNA-expressed CYP3A4 or CYP2C19 supersomes (10 pmol) at 37 °C for 30 min in triplicate. Reactions were stopped by addition of 400 μL of ice-cold ketoconazole (200 ng/mL) in acetonitrile. Following vortex-mixing and centrifugation (15,000× g, 8 min, 4 °C), 75 μL aliquots of the supernatant were diluted with 75 µL of 30% acetonitrile; 5 μL aliquots were injected into an LC−MS/MS system.
Apparent kinetic parameters (Km, Vmax and n) for the formation of M1, M2, and M3 from DWP16001 by human liver microsomes, CYP3A4, or CYP2C19 were calculated as follows: the unweighted formation rates of M1, M2, and M3 over a range of DWP16001 concentrations were fitted to the Hill equation model [V = Vmax × S^n/(Km^n + S^n)] or the single enzyme model [V = Vmax × S/(Km + S)] using Enzyme Kinetics software (version 1.1 SPSS Inc., Chicago, IL, USA). In the above equations, V means the reaction velocity of the formation of M1, M2, and M3 at given concentration [S] of DWP16001, Vmax means the maximum reaction velocity, n means the Hill constant, and Km means the DWP16001 concentration at which the reaction velocity is 50% of Vmax.

The target of data set [2] is T2, CYP3A4. The data set is described as follows: Immunoinhibition of DWP16001 metabolism by anti-CYP3A4 antibody in human liver microsomes. The following applies: 5 μM DWP16001, pooled human liver microsomes. The procedure:
DWP16001 (5 μM) in human liver microsomes was incubated with varying concentrations of antibody specific for human CYP3A4 (anti-CYP3A4 antibody). Prior to incubation, human liver microsomes were pretreated with anti-CYP3A4 antibody for 15 min on ice. Reactions were initiated by addition of an aliquot of NADPH-generating system; mixtures were incubated for 60 min at 37 °C. Reactions were terminated by addition of 100 µL of ice-cold ketoconazole (200 ng/mL) in acetonitrile; following centrifugation at 15,000× g for 10 min at 4 °C. Aliquots of supernatant (150 µL) was evaporated using a vacuum concentrator and re-dissolved in 100 µL of 20% methanol; 5 µL aliquots were injected into an LC-MS/MS system.
Background: Liver microsomes are vesicles of endoplasmic reticulum, rich in cytochrome P450 enzymes.

Data set [3] is described as follows: Metabolic stability in rat hepatocytes. The following applies: pooled cryopreserved hepatocytes. The procedure: (§1) To evaluate the metabolic stability of DWP16001 in human, dog, monkey, mouse, and rat hepatocytes, pooled cryopreserved hepatocytes were carefully thawed in recovery medium and resuspended in incubation medium (Krebs–Henseleit buffer for mouse, rat, and human; William’s E media for dog and monkey) to 0.5 × 10^6 cells/mL for mouse, 0.67 × 10^6 cells/mL for rat, and 1.0 × 10^6 cells/mL for dog, monkey, and human in accordance with the manufacturer’s protocols. Then, 60-μL aliquots of these hepatocyte suspensions and an equal volume of 2 μM DWP16001 in incubation medium were mixed in 96-well plates and incubated in triplicate for 0, 30, 60, 90, 120, 180, or 240 min in a CO2 incubator at 37 °C. Reactions were stopped by addition of 120 µL of ice-cold acetonitrile to each well and the cell suspension was sonicated for 5 min at 4 °C, followed by centrifugation at 15,000× g for 10 min at 4 °C after 5 min of sonication. 80-µL aliquots of the supernatants were then vortex-mixed with 20 μL of ice-cold ketoconazole (an internal standard) in acetonitrile and analyzed by LC–tandem mass spectrometry (LC-MS/MS). The peak area ratios of DWP16001 versus internal standard at each sampling point were used for the subsequent calculation. Elimination parameters, including half-life (t1/2), intrinsic clearance (Clint), and hepatic clearance (Clhep) of DWP16001 in mouse, rat, dog, monkey, and human were calculated by the following equations [19]. (1) t1/2min=ln2/−k elimination slope (2) ClintmL/min/kg=ln2/t1/2×mL incubation/hepatocytes 10^6 cells×B×10^6 cells/g liver×A g liver/kg BW (3) ClhepmL/min/kg=Qh×Clint/Qh+Clint (4) Hepatic extraction ratio = Clhep/Qh
(§2) Here, A has values of 87.5, 40, 32, 32, and 25.7; B has values of 135, 117, 215, 120, and 139; Qh (representing hepatic blood flow) has values of 90, 55.2, 30.9, 43.4, and 20.7 mL/min/kg, for mouse, rat, dog, monkey, and human, respectively. Hepatic extraction ratio values of ≤ 0.25, 0.25–0.75, and ≥ 0.75 were regarded as low, moderate, and high, respectively.

For a further data set, the system named is rat hepatocytes. The data set is described as follows: Metabolic stability in rat hepatocytes. The procedure:
as §1, §2

In another data set the test system is mouse hepatocytes. The experiment in a line: Metabolic stability in mouse hepatocytes. The procedure: as §1, §2
A short description of data set [4]: Metabolic stability in mouse hepatocytes. The following applies: pooled cryopreserved hepatocytes, mouse hepatocytes. The procedure:
as §1, §2

Another data set has as its system monkey hepatocytes. The data set is described as follows: Metabolic stability in monkey hepatocytes. The procedure:
as §1, §2

Data set [5] can be described thus: Metabolic stability in monkey hepatocytes. The following applies: pooled cryopreserved hepatocytes, monkey hepatocytes. The procedure: as §1, §2

By CLint scaled is commonly meant the capacity of the preparation to metabolise the compound, expressed as a volume cleared per time. By half-life is commonly meant how long it takes for the measured level to halve.

T2 sequence (P08684 whole entry): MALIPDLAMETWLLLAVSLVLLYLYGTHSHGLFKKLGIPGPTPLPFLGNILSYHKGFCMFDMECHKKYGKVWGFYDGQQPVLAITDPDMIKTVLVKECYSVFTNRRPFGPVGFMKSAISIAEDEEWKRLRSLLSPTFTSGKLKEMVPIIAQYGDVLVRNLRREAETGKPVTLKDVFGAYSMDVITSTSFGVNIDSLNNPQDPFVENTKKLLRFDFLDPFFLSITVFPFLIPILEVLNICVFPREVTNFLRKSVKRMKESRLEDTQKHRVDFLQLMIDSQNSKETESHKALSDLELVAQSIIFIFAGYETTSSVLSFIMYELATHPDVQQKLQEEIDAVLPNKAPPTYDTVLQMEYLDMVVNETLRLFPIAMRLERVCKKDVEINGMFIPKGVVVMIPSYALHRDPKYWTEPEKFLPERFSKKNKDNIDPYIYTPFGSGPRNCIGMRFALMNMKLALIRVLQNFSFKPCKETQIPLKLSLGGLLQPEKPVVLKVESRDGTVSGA
T1 sequence (P33261 whole entry): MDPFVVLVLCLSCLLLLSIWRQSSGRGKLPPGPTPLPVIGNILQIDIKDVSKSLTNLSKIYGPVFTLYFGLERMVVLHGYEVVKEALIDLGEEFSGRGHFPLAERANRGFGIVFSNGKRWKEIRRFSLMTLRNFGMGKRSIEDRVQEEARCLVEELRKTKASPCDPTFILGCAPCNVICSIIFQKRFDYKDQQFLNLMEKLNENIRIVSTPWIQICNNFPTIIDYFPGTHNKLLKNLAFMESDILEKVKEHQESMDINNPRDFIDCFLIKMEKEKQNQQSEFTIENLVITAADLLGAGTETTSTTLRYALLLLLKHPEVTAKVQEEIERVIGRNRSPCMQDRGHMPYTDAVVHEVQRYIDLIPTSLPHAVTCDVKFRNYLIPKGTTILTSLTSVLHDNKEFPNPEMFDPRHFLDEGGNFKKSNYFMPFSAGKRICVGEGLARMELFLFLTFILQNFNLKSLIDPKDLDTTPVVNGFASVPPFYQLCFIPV

For the compound `OC[C@H]1O[C@@H](c2cc(Cc3ccc(C4CC4)cc3)c(Cl)c3c2CCO3)[C@H](O)[C@@H](O)[C@@H]1O` [DWP16001, (2S,3R,4R,5S,6R)-2-(7-chloro-6-(4-cyclopropylbenzyl)-2,3-dihydrobenzofuran-4-yl)-6-(hydroxymethyl)tetrahydro-2H-pyran-3,4,5-triol], the “Substrate of CYP2C19” value at CYP2C19 was “substrate”. The “M3 formation kinetic model” value on CYP3A4 [1] is “single enzyme kinetics”. Besides, the “M1 Formation Mode” value at CYP3A4 [1] (kinetic model fitted) is “Hill”. Moreover, the “M2 Formation Mode” value on CYP3A4 [1] (kinetic model fitted) is on record as “Hill”. The “Formation of M1 and M2 from DWP16001 with increasing anti-CYP3A4 antibody” value at CYP3A4 [2] is “decreased”. Also, the CLint scaled at 1 μM was determined as 0.588 L/h/kg in data set [3], 3.68 L/h/kg in data set [4] and 1.94 L/h/kg in [5]. In addition, the half-life at 1 μM was found to be 16.5 h in data set [3] (37 °C, 0-240 min); 8.88 h in [4] (37 °C, 0-240 min); 2.75 h in [5] (37 °C, 0-240 min). The Hepatic extraction ratio with rat hepatocytes is 0.15; in the data set with mouse hepatocytes (mouse hepatocytes), 0.41; in the data set on monkey hepatocytes (monkey hepatocytes) it was 0.43. Moreover, the “Hepatic extraction ratio class” value with rat hepatocytes is listed as “low (Hepatic extraction ratio values of ≤ 0.25)”; in the data set on mouse hepatocytes (mouse), “moderate (0.25–0.75)”; with monkey hepatocytes (monkey), “moderate (0.25–0.75)”. Moreover, the Clhep is 0.498 L/h/kg in the data set on rat hepatocytes (well-stirred model); 2.19 L/h/kg with mouse hepatocytes (mouse hepatocytes, well-stirred model); 1.11 L/h/kg in the data set on monkey hepatocytes (monkey hepatocytes, well-stirred model).
